# Laboratory results taken from patent publication US12139458B2, “(2,5-dioxopyrrolidin-1-yl)(phenyl)-acetamide derivatives and their use in the treatment of neurological diseases” (UNIWERSYTET JAGIELLONSKI, priority 2019, dated 2024).
# How the values were obtained:
# [1] = system: male Swiss albino mice (CD-1); assay: Psychomotor seizure test 6 Hz (44 mA); assay type: in vivo
# Summary of the method: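 Male CD-1 mice (groups of 4) given compounds i.p. in 1% Tween 30 min before a 3 s, 6 Hz corneal stimulus at 44 mA after lidocaine. Psychomotor seizure signs (immobility, forelimb clonus, vibrissae twitching, Straub tail) scored over 10 s; ANOVA with Dunnett's test, p<0.05.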
# [2] = Rotarod test (motor coordination); assay type: in vivo; conditions: male, Swiss albino (CD-1), mouse, in vivo, ip, mice
# Summary of the method: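 Compounds were given i.p. in 1% aqueous Tween as single doses 30 min before testing, 4 mice per group, after training the day before. Mice were tested on a 2 cm rod at 10 rpm for 60 s, and failure to stay on for 1 min counted as impairment. Statistics: one-way ANOVA with Dunnett's test, p<0.05.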
# [3] = system: male white Swiss mice (CD-1); assay: Oxaliplatin-induced neuropathic pain, von Frey test; assay type: in vivo; conditions: for pain threshold, von Frey test: 7 days after OXPT, after OXPT 1.89±0.04 g; for pain threshold as % of the initial value, von Frey test: initial value 3.36±0.10 g
# Method: The tests were carried out using male white Swiss mice (CD-1) weighing 18-25 g. All procedures were carried out in accordance with Polish and international guidelines on ethics of animal testing, after obtaining appropriate institutional approval. The study group consisted of 8-10 animals. The tested and reference substances were administered intraperitoneally 30 minutes before given test as suspension in 1% aqueous solution of Tween. All tests/models were carried out based on the procedures described in the specialist literature: the formalin test (Beirith, A.; Santos, A. R.; Calixto, J. B.; Rodrigues, A. L.; Creczynski-Pasa, T. B. Eur. J. Pharmacol. 1998, 345, 233-245), the model of capsaicin-induced pain (Mogilski, S.; Kubacka, M.; Redzicka, A.; Kazek, G.; Dudek, M.; Malinka, W.; Filipek, B. Pharmacol. Biochem. Behav. 2015, 133, 99-110), the model of oxaliplatin-induced neuropathic pain—von Frey test (Sałat, K.; Cios, A.; Wyska, E.; Satat, R.; Mogilski, S.; Filipek, B.; Wigȩkowski, K.; Malawska, B. Pharmacol. Biochem. Behav. 2014, 122, 173-181).
# Oxaliplatin (OXPT) was dissolved in a 5% glucose solution, followed by intraperitoneal administration to mice. A single dose of 10 mg/kg was used. Tactile and thermal (sensation of low temperature) allodynia associated with oxaliplatin-induced neuropathy are characterized by two phases. The early phase is acute and develops soon after administration of the OXPT, while the symptoms of the later (chronic) phase (associated with neurons damage), develops after a few days. Behavioral tests in mice with OXPT-induced neuropathy were carried out 7 days after its administration, i.e. in the late phase of neuropathy.
# The influence of compounds tested on tactile allodynia was determined in the von Frey test. The animals were placed individually in cages with a reticulated bottom, 60 minutes before the beginning of the experiment, in order to adapt to the new environment. An electronic Von Frey apparatus (Electronic Von Frey, Bioseb, France) was used to assess the pain threshold for mechanical stimuli. The von Frey's fiber was applied to the underside of the right mouse paw with increasing pressure. […] The measurement was performed 3 times for each mouse, with at least 30 seconds between the measurements, then the results obtained were averaged. The entire study was performed 3 times: before OXPT administration to determine the baseline pain threshold; 7 days after administration of OXPT, and before administration of test compounds, to assess developing neuropathy by setting a new pain threshold; 30 minutes after administration of the compounds to determine their influence developed neuropathy.
# Compound 6 was administered at doses of 10, 20 and 30 mg/kg.
# [4] = system: Ca2+ channel type L (verapamil binding site); assay: Ca2+ channel type L (verapamil binding site) affinity study; conditions: 100 μM, rat cerebral cortex
# Source text: A unique feature of the compound 6 representing compounds of formula (II) according to the invention is the inhibition of calcium currents by blocking the transient receptor potential vanilloid type 1 (TRPV1). This effect has not been disclosed for known AEDs. TRPV1 receptor antagonism may determine the antinociceptive effect of the compounds disclosed herein. The role of the TRPV1 receptor in conduction of pain stimuli has been well documented in specialist literature (Szallasi, A.; Cortright, D. N.; Blum, C. A.; Eid, S. R. Nat. Rev. Drug. Discov. 2007, 6, 357-372). The compounds according to the invention are characterized by a complex mechanism of action, which is not described for known anticonvulsants. It should be emphasized, however, that further in vitro studies may reveal further molecular targets responsible for the pharmacological action of substances being the subject of current patent claim. The results of binding studies (sodium channel, calcium channel) and functional tests (TRPV1 receptor) for compound 6 are shown in Table 3.
structure (smiles),measurement,setting,value
"O=C(C(c1ccccc1)N1C(=O)CCC1=O)N1CCN(c2cccc(C(F)(F)F)c2)CC1 (racemic) [Compound 6, 1-(2-Oxo-1-phenyl-2-(4-(3-(trifluoromethyl)phenyl)piperazin-1-yl)ethyl)pyrrolidine-2,5-dione]",ED50,"[1]; Mus musculus, ip, 0.5 h, mice",73.2 mg/kg
same,6 Hz (44 mA): number of mice protected/number of mice tested,"[1]; screening, 100 mg/kg i.p., 0.5 h, mice",4/4
same,mice protected in the 6 Hz (44 mA) test,"[1]; screening, 100 mg/kg, time point 0.5 h",100%
same,TD50 at 0.5 h,[2],196 mg/kg
same,"pain threshold, von Frey test",[3]; 10 mg/kg i.p.,2.87 ± 0.12 g
same,"pain threshold as % of the initial value, von Frey test",[3]; 10 mg/kg i.p.,85.41%
same,"pain threshold, von Frey test",[3]; 20 mg/kg i.p.,3.83 ± 0.13 g
same,"pain threshold as % of the initial value, von Frey test",[3]; 20 mg/kg i.p.,113.98%
same,"pain threshold, von Frey test",[3]; 30 mg/kg i.p.,4.17 ± 0.17 g
same,"pain threshold as % of the initial value, von Frey test",[3]; 30 mg/kg i.p.,124.10%
same,"Inhibition of specific control binding, Ca2+ channel type L (verapamil binding site)",[4],58.2 (100) %
